{"source": "patent US20210205329A1", "about": "(The University of North Carolina at Chapel Hill, priority 2018, published 2021)", "tested_on": "MCP-1", "experiment": "MCP-1 ELISA in VTA, amygdala and hypothalamus of female and male P rats", "format": "in vivo, rat", "conditions": "15 mg/kg IP", "experimental": "(Two-way ANOVA: F (1,28)=20.92, P<0.0001), and Hypothalamus [female (27%) and male (32%)] (Two-way ANOVA: F (1,28)=31.55, P<0.0001).\nELISA. Brain tissue micropunches were lysed with Cellyte MT and the extracts were assayed for protein content by the BCA procedure (Pierce) and for MCP-1 using the rat MCP-1 ELISA kit (Raybiotech—ERC-MCP-1-CL; Norcross, Ga., USA) or for fracktalkine using the rat fractalkine ELISA kit (Raybiotech—ERC-CX3CL1-CL; Norcross, Ga., USA) as per manufacturer's instructions.\nTo determine if the effects of 3α,5α-THP on MCP-1 were selective for P rat NAc, the effects of 3α,5α-THP administration in VTA, Amygdala and Hypothalamus of both female and male P rats was examined.", "data": [{"molecule": "CC(=O)[C@H]1CC[C@H]2[C@@H]3CC[C@H]4C[C@H](O)CC[C@]4(C)[C@H]3CC[C@]12C", "note": "[3α,5α-THP, (3α,5α)3-hydroxypregnan-20-one]", "values": [{"measurement": "reduction of MCP-1 levels in Amygdala", "setting": "female P rats", "value": 47, "unit": "%"}, {"measurement": "reduction of MCP-1 levels in Hypothalamus", "setting": "female P rats", "value": 27, "unit": "%"}, {"measurement": "reduction of MCP-1 levels in VTA", "setting": "female P rats", "value": 27, "unit": "%"}, {"measurement": "reduction of MCP-1 levels in Amygdala", "setting": "male P rats", "value": 58, "unit": "%"}, {"measurement": "reduction of MCP-1 levels in Hypothalamus", "setting": "male P rats", "value": 32, "unit": "%"}, {"measurement": "reduction of MCP-1 levels in VTA", "setting": "male P rats", "value": 21, "unit": "%"}]}]}
